Data as given in patent US9469616B2, “Cyclic compounds and methods of making and using the same” (Cellceutix Corporation, priority 2011, dated 2016).
Values after ≈ are worked out from the molar mass of the structure shown.

What was measured:
Assay type in all cases: cell-based
E. coli (25922) = assay: MIC assay (Table 1); details: Escherichia coli, isolate 25922
S. aureus (27660) = assay: MIC assay (Table 1); details: Staphylococcus aureus, isolate 27660
NIH/3T3 cells = assay: Cytotoxicity colorimetric assay; details: Mus musculus, NIH3T3, 1 h, one hour incubation in serum-free media
Description: Cytotoxicity of the compounds are evaluated in a colorimetric assay using a transformed human liver cell line (HepG2, HB-8065) and an embryonic mouse cell line (NIH/3T3 cells, CRL-1658). This assay measures the bioreduction of a novel tetrazolium compound to a soluble formazan product by viable cells. HepG2 cells are seeded in 96 well plates at 2×10^4 cells/well in MEM medium with 10% fetal bovine serum (FBS) 24 hours prior to use. NIH/3T3 cells are seeded in 96 well plates at 2×10^4 cells/well in DMEM medium with 10% bovine calf serum (BCS) 24 hours prior to use. Cell monolayers are rinsed in serum-free media and incubated for one hour with a Compound in serum-free media. After incubation, the media is replaced with serum supplemented media and live cells are measured using the Cell Titer 96 Aqueous […] Assay kit (Promega, Madison, Wis.). EC50 values are determined using a four parameter logistic equation: Y=Bottom+(Top−Bottom)/(1+10^((Log EC50−X)*HillSlope)). […] Data is expressed as EC50 in μg/ml. Cytotoxicity is evaluated in a colorimetric assay using a transformed human liver cell line (HepG2, HB-8065) and an embryonic mouse cell line (NIH/3T3 cells, CRL-1658). This assay measures the bioreduction of a novel tetrazolium compound to a soluble formazan product by viable cells. HepG2 cells are seeded in 96 well plates at 3×10^4 cells/well in MEM medium with 10% fetal bovine serum (FBS) 24 hours prior to use. NIH/3T3 cells are seeded in 96 well plates at 2×10^4 cells/well in DMEM medium with 10% bovine calf serum (BCS) 24 hours prior to use. Cell monolayers are rinsed in serum-free media and incubated for one hour with test agent in serum-free media. After incubation, the media is replaced with serum supplemented media and live cells are measured using the Cell Titer 96 Aqueous […] Assay kit (Promega, Madison, Wis.). EC50 values are determined using a four parameter logistic equation: Y=Bottom+(Top−Bottom)/(1+10^((Log EC50−X)*HillSlope)).

P. aeruginosa (10145) = assay: MIC assay (Table 1); details: Pseudomonas aeruginosa, isolate 10145
HepG2 = assay: Cytotoxicity colorimetric assay; details: Homo sapiens, HepG2, 1 h, one hour incubation in serum-free media
Description: Cytotoxicity of the compounds are evaluated in a colorimetric assay using a transformed human liver cell line (HepG2, HB-8065) and an embryonic mouse cell line (NIH/3T3 cells, CRL-1658). This assay measures the bioreduction of a novel tetrazolium compound to a soluble formazan product by viable cells. HepG2 cells are seeded in 96 well plates at 2×10^4 cells/well in MEM medium with 10% fetal bovine serum (FBS) 24 hours prior to use. NIH/3T3 cells are seeded in 96 well plates at 2×10^4 cells/well in DMEM medium with 10% bovine calf serum (BCS) 24 hours prior to use. Cell monolayers are rinsed in serum-free media and incubated for one hour with a Compound in serum-free media. After incubation, the media is replaced with serum supplemented media and live cells are measured using the Cell Titer 96 Aqueous […] Assay kit (Promega, Madison, Wis.). EC50 values are determined using a four parameter logistic equation: Y=Bottom+(Top−Bottom)/(1+10^((Log EC50−X)*HillSlope)). Actual results from a representative cytotoxicity assay are shown below in Table 3. Data is expressed as EC50 in μg/ml. Cytotoxicity is evaluated in a colorimetric assay using a transformed human liver cell line (HepG2, HB-8065) and an embryonic mouse cell line (NIH/3T3 cells, CRL-1658). This assay measures the bioreduction of a novel tetrazolium compound to a soluble formazan product by viable cells. HepG2 cells are seeded in 96 well plates at 3×10^4 cells/well in MEM medium with 10% fetal bovine serum (FBS) 24 hours prior to use. NIH/3T3 cells are seeded in 96 well plates at 2×10^4 cells/well in DMEM medium with 10% bovine calf serum (BCS) 24 hours prior to use. Cell monolayers are rinsed in serum-free media and incubated for one hour with test agent in serum-free media. After incubation, the media is replaced with serum supplemented media and live cells are measured using the Cell Titer 96 Aqueous […] Assay kit (Promega, Madison, Wis.). EC50 values are determined using a four parameter logistic equation: Y=Bottom+(Top−Bottom)/(1+10^((Log EC50−X)*HillSlope)).

K. pneumoniae (13883) = assay: MIC assay (Table 1); details: Klebsiella pneumoniae, isolate 13883, read-out: MIC50 K. Pnuemnoiae
Description: (§1) The compounds are screened for antimicrobial activity against a number of clinically relevant pathogens. Minimum Inhibitory Concentrations (MIC) of each of the compounds are determined using standard procedures for clinical ocular isolates of Ciprofloxacin Susceptible (CS) S. aureus (CSSA), Ciprofloxacin Resistant (CR) S. aureus (CRSA), CS S. epidermidis (CSSE), CR S. epidermidis (CRSE), St. pneumoniae (SP), St. viridans group (SV), Moraxella Species (MS) (including Moraxella catarrhalis), H. influenzae (HI), P. aeruginosa (PA), Serratia marcescens (SM), S. aureus fluoroquinolone-susceptible, S. aureus fluoroquinolone-resistant, S. epidermidis (Coagulase-negative Staphylococcus) fluoroquinolone-susceptible, S. epidermidis (Coagulase-negative Staphylococcus) fluoroquinolone-resistant, and Serratia marcescens.
(§2) On the day of testing, a 640 μg/m (1280 μg/m for Serratia marcescens and Pseudomonas aeruginosa) concentration is prepared from a 1% stock solution in 0.01% acetic acid, 0.2% BSA in polypropylene tubes.
(§3) Ten μl of diluted 10× test agents is added to each well of one row of the 96 well polypropylene plates from column 2 to column 12 (column 1 is a control for bacteria alone, with no peptide). […] The same peptide is in each of the 8 rows. One plate contains dilutions of one test agent and 8 bacterial isolates.
(§4) Ninety μl of the bacterial suspensions is dispensed in each well from column 1 to column 12. Each bacterial isolate is placed in one row of a 96 well polypropylene plate containing the test agents. The plates are placed on shaker at 15 minutes at room temperature, and then incubated at 37° C. overnight. MICs are determined visually as the lowest concentration of drug that inhibits visible bacterial growth.
(§5) Data is expressed as MIC50 in μg/ml. The bacterial isolates were as follows: E. coli (25922); S. aureus (27660); E. faecalis (29212); P. aeruginosa (10145); and K. pneumoniae (13883).

E. faecalis (29212) = assay: MIC assay (Table 1); details: Enterococcus faecalis, isolate 29212
Description: as §1, §2, §3, §4, §5

SMILES	MIC50 (E. coli (25922)) [µg/mL]	MIC50 (S. aureus (27660)) [µg/mL]	EC50 (NIH/3T3 cells) [µg/mL]	MIC50 (P. aeruginosa (10145)) [µg/mL]	EC50 (HepG2) [µg/mL]	MIC50 (K. pneumoniae (13883)) [µg/mL]	MIC50 (E. faecalis (29212)) [µg/mL]
N=C(N)NCCCOc1cc(-c2cn(-c3cc(OCCCNC(=N)N)cc(OCCCNC(=N)N)c3)nn2)cc(-c2cn(-c3cc(OCCCNC(=N)N)cc(OCCCNC(=N)N)c3)nn2)c1 [Compound 100]	50 (≈ 53.2 µM)	50 (≈ 53.2 µM)	23.2 (≈ 24.7 µM)	> 50	48.6 (≈ 51.7 µM)	> 50	25 (≈ 26.6 µM)
NCCCOc1ccc(-n2cc(-c3cccc(-c4cn(-c5ccc(OCCCN)c(OCCCN)c5)nn4)c3)nn2)cc1OCCCN [Compound 101]	> 50	12.5 (≈ 19 µM)	52.4 (≈ 79.8 µM)	50 (≈ 76.1 µM)	–	> 50	12.5 (≈ 19 µM)
NCCCOc1cc(OCCCN)cc(-n2cc(-c3ccc4ccc(-c5cn(-c6cc(OCCCN)cc(OCCCN)c6)nn5)cc4c3)nn2)c1 [Compound 102]	> 50	12.5 (≈ 17.7 µM)	36.1 (≈ 51.1 µM)	> 50	48.4 (≈ 68.5 µM)	50 (≈ 70.7 µM)	25 (≈ 35.4 µM)
NCCCOc1ccc(-n2cc(-c3ccc4ccc(-c5cn(-c6ccc(OCCCN)c(OCCCN)c6)nn5)cc4c3)nn2)cc1OCCCN [Compound 103]	> 50	25 (≈ 35.4 µM)	32.7 (≈ 46.3 µM)	50 (≈ 70.7 µM)	55.5 (≈ 78.5 µM)	> 50	25 (≈ 35.4 µM)
N=C(N)NCCCOc1ccc(-n2cc(-c3ccc4ccc(-c5cn(-c6ccc(OCCCNC(=N)N)c(OCCCNC(=N)N)c6)nn5)cc4c3)nn2)cc1OCCCNC(=N)N [Compound 104]	> 50	25 (≈ 28.6 µM)	34.7 (≈ 39.7 µM)	50 (≈ 57.1 µM)	54 (≈ 61.7 µM)	> 50	25 (≈ 28.6 µM)
NCCCOc1cc(-c2cn(-c3cc(OCCCN)cc(OCCCN)c3)nn2)cc(-c2cn(-c3cc(OCCCN)cc(OCCCN)c3)nn2)c1 [Compound 105]	50 (≈ 68.5 µM)	25 (≈ 34.3 µM)	83.4 (≈ 114 µM)	50 (≈ 68.5 µM)	–	> 50	> 50
N=C(N)NCCCOc1cc(-c2cn(-c3cccc(OCCCNC(=N)N)c3)nn2)cc(-c2cn(-c3cccc(OCCCNC(=N)N)c3)nn2)c1 [Compound 106]	25 (≈ 35.2 µM)	1.56 (≈ 2.2 µM)	191 (≈ 269 µM)	50 (≈ 70.4 µM)	–	> 50	50 (≈ 70.4 µM)
NCCCOc1cc(-c2cn(-c3cccc(OCCCN)c3)nn2)cc(-c2cn(-c3cccc(OCCCN)c3)nn2)c1 [Compound 107]	> 50	50 (≈ 85.7 µM)	131 (≈ 224 µM)	25 (≈ 42.8 µM)	–	> 50	25 (≈ 42.8 µM)
NCCCOc1cc(OCCCN)cc(-c2cc(-c3cc(OCCCN)cc(OCCCN)c3)cc(-c3cc4ccccc4[nH]3)c2)c1 [Compound 108]	6.25 (≈ 9.8 µM)	1.56 (≈ 2.45 µM)	–	25 (≈ 39.2 µM)	–	> 50	12.5 (≈ 19.6 µM)
N=C(N)NCCCOc1cc(OCCCNC(=N)N)cc(-c2cccc(-c3cc(OCCCNC(=N)N)cc(OCCCNC(=N)N)c3)c2)c1 [Compound 109]	1.56 (≈ 2.26 µM)	0.4 (≈ 0.579 µM)	69 (≈ 99.9 µM)	12.5 (≈ 18.1 µM)	–	6.25 (≈ 9.05 µM)	1.56 (≈ 2.26 µM)
Cc1ccc(-c2cc(-c3cc(OCCCN)cc(OCCCN)c3)cc(-c3cc(OCCCN)cc(OCCCN)c3)c2)cc1 [Compound 110]	3.13 (≈ 5.11 µM)	0.78 (≈ 1.27 µM)	129 (≈ 211 µM)	25 (≈ 40.8 µM)	–	6.25 (≈ 10.2 µM)	1.56 (≈ 2.55 µM)
CC(C)(C)c1ccc(-c2cc(-c3cc(OCCCN)cc(OCCCN)c3)cc(-c3cc(OCCCN)cc(OCCCN)c3)c2)cc1 [Compound 113]	3.13 (≈ 4.78 µM)	1.56 (≈ 2.38 µM)	99.5 (≈ 152 µM)	12.5 (≈ 19.1 µM)	–	3.13 (≈ 4.78 µM)	1.56 (≈ 2.38 µM)
N=C(N)NCCCOc1cc(OCCCNC(=N)N)cc(-c2cc(-c3ccccc3)cc(-c3cc(OCCCNC(=N)N)cc(OCCCNC(=N)N)c3)c2)c1 [Compound 114]	1.56 (≈ 2.03 µM)	0.78 (≈ 1.02 µM)	33.6 (≈ 43.8 µM)	12.5 (≈ 16.3 µM)	40.4 (≈ 52.7 µM)	1.56 (≈ 2.03 µM)	3.13 (≈ 4.08 µM)
N=C(N)NCCCOc1cc(OCCCNC(=N)N)cc(-c2ccc3ccc(-c4cc(OCCCNC(=N)N)cc(OCCCNC(=N)N)c4)cc3c2)c1 [Compound 117]	1.56 (≈ 2.11 µM)	1.56 (≈ 2.11 µM)	31.6 (≈ 42.7 µM)	12.5 (≈ 16.9 µM)	–	1.56 (≈ 2.11 µM)	0.78 (≈ 1.05 µM)
